For assay [1], the system named is Mycobacterium tuberculosis. In words: Photodynamic antibacterial activity against multidrug resistant Mycobacterium tuberculosis assessed as reduction in bacterial burden at 10 ug/ml preincubated for 2 hrs in dark followed by light irradiation at 50 J/cm2 for 500 secs. In kind it is functional.
The test system of assay [2] is Mycobacterium tuberculosis. In words: Photodynamic antibacterial activity against extensively drug resistant Mycobacterium tuberculosis assessed as reduction in bacterial burden at 10 ug/ml preincubated for 2 hrs in dark followed by light irradiation at 50 J/cm2 for 500 secs. In kind it is functional.

With `C=Cc1c(C)c2cc3nc(c(C=O)c4[nH]c(cc5nc(cc1[nH]2)C(C)=C5C)c(C)c4C(=O)O)[C@@H](CCC(=O)O)[C@@H]3C`, the “log(activity)” value was determined as 3.1 in assay [1] and 2.8 in assay [2].

The values above are taken from ChEMBL document CHEMBL4346724, “Porphyrinoid photosensitizers mediated photodynamic inactivation against bacteria” (Eur J Med Chem, 2019).
